From patent US20190112580A1, “METHODS FOR TREATING CO[…] AND RELATED CULTURED CELLS” (priority 2017, published 2019)

What was measured:
[1] = system: myoblast cell preparation; experiment: 5-AZA concentration and medium finding in myoblast cell preparation
Description: The myoblast cell preparation may be cultured in a proliferation medium in the presence of a DNA methyltransferase inhibitor, such as 5-AZA. A DNA methyltransferase inhibitor may be introduced while the myoblast cell preparation is being developed in the proliferation medium. For instance, a DNA methyltransferase inhibitor may be introduced once the myoblast cell preparation is at 50-80% cell confluence by visual inspection. A higher confluence percentage or density may be appropriate, so long as the confluence is not so high that the cells become overcrowded or grow in multiple layers, resulting in spontaneous cell fusion and/or cell death. The DNA methyltransferase inhibitor may be introduced earlier, for instance, at the same time the isolated satellite cells are added to the proliferation medium. […] Concentrations of DNA methyltransferase inhibitor used may vary. For example, the myoblast cell preparation may be cultured in proliferation medium in the presence of 5 μM of 5-AZA. […] The myoblast cell preparation may be cultured in the presence of a DNA methyltransferase inhibitor for a period of time. One appropriate period of time using 5 μM of 5-AZA is 24 hours. As few as 6 hours may be appropriate using 5 μM of 5-AZA.

[2] = system: CP and TD myoblast preparations; experiment: Cell doubling time, xCELLigence RTCA DP; type: cell-based, human; details: 5 μM, 24 hours; FIG. 9B
Method: FIG. 9B. A cell impedance-measuring xCELLigence RTCA DP instrument was used to quantify rates of “cell doubling time” (a measurement of cell proliferation) in CP and TD myoblast preparations, treated and non-treated with 5-AZA, as illustrated in FIG. 9B. Proliferating myoblasts were treated with 5 μM 5-AZA (Sigma-Aldrich) for 24 hours to induce DNA hypomethylation. Other cell preparations were not treated with 5-AZA to serve as a control. Following treatment, myoblasts were harvested from exponential growth phase cultures by a standardized detachment procedure using 0.05% Trypsin-EDTA and counted. […] Plates were locked in the RTCA DP device in the incubator and the impedance value of each well was automatically monitored by the xCELLigence system and expressed as a Cell Index value (CI). […] CI was recorded every 15 min for the entirety of the period. Cell doubling time was calculated from the exponential phase of the growth curve generated by the CI values using the supplied RTCA software.
A cell impedance-measuring xCELLigence RTCA DP instrument was used to quantify rates of “cell doubling time” (a measurement of cell proliferation) in CP and TD myoblast preparations, treated and non-treated with 5-AZA, as illustrated in FIG. 9B. […] Following treatment, myoblasts were harvested from exponential growth phase cultures by a standardized detachment procedure using 0.05% Trypsin-EDTA and counted. […]

C2C12 myoblasts = details: cited from earlier work
[3] = system: proliferating CP and TD myoblast cultures; experiment: Global DNA methylation, MethylFlash Methylated DNA Quantification Kit; type: cell-based, human; details: 5 μM, 24 hours; FIG. 9A
Method: FIG. 9A illustrates global methylation levels of DNA in proliferating CP and TD myoblast cultures that were treated or non-treated with 5-AZA. Methylation levels were measured using a MethylFlash Methylated DNA Quantification Kit (EpiGentek, P-1034-96). Myoblasts were seeded into gelatin-coated 10 cm plates. Myoblast cell preparations from CP and TD study subjects were exposed to 5 μM of 5-AZA in proliferation medium. 5-AZA was introduced while the myoblast cell preparations were being developed in the high-serum medium, once the myoblast cell preparations were at about 60% of cell plate confluence by visual inspection. […] The myoblast cell preparations then had the 5-AZA washed off by switching the myoblast cell preparations each to fresh high-serum medium and further expanded to 90% of confluence. DNA was extracted from these cultures using the “DNA Purification from Cultured Cells” protocol as described in the Gentra Puregene DNA isolation kit (Qiagen, 158388).
In FIG. 9A, global methylation levels of DNA were investigated in proliferating CP and TD myoblast cultures that were treated or non-treated with 5-AZA. Methylation levels were measured using a MethylFlash Methylated DNA Quantification Kit (EpiGentek, P-1034-96). Myoblasts were seeded into gelatin-coated 10 cm plates. Myoblast cell preparations from CP and TD study subjects were exposed to 5 μM of 5-AZA in proliferation medium. […]

[4] = 5 μM for 3 days (Montesano et al.)

Compound: Nc1ncn([C@@H]2O[C@H](CO)[C@@H](O)[C@H]2O)c(=O)n1 [5-AZA, 5-azacytidine]
- myotube growth ([1]; 0.5 μM of 5-AZA): not sufficiently concentrated to cause appropriate myotube growth
- death of the cells ([1]; 50 μM of 5-AZA): causes the death of the cells in the myoblast cell preparation
- concentrations lethal to cells ([1]; human): ≥ 50 µM
- cell doubling time [2]: resulted in similar myoblast cell doubling times between CP and TD myoblasts
- DNA methylation and differentiation (C2C12 myoblasts; [4]): induced DNA hypomethylation and improved differentiation of C2C12 myoblasts
- cytotoxicity (C2C12 myoblasts; [4]): without overt signs of cytotoxicity
- muscle-specific gene expression, myogenesis and myotube formation (C2C12 myoblasts; mouse-derived C2C12 muscle cell lines): promoted expression of muscle-specific genes, enhanced myogenesis and myotube formation
- global methylation levels of DNA [3]: caused global DNA hypomethylation in both CP and TD patients
